Experimental data from PubChem BioAssay (NCI).
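Protocol summary: plate cells (96-well), add compound at 5 concentrations, incubate 48 h, interpolate endpoints linearly. GI50 = concentration required for 50% inhibition of growth. TGI marks complete inhibition of growth.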

Tests used:
Test in all cases: growth of human tumour cells (NCI), 48 h
[1] = system: ACHN renal
[2] = system: KM12 colon
[3] = system: OVCAR-4 ovarian
[4] = system: MCF7 breast
[5] = system: T-47D breast
[6] = system: SK-MEL-2 melanoma
[7] = system: NCI/ADR-RES ovarian
[8] = system: MOLT-4 leukemia
[9] = system: OVCAR-5 ovarian
[10] = system: RXF 393 renal
[11] = system: K-562 leukemia
[12] = system: NCI-H226 lung
[13] = system: NCI-H460 lung
[14] = system: SNB-19 CNS
[15] = system: UACC-62 melanoma
[16] = system: HL-60(TB) leukemia
[17] = system: PC-3 prostate
[18] = system: SF-295 CNS
[19] = system: UO-31 renal
[20] = system: SW-620 colon
[21] = system: RPMI-8226 leukemia
[22] = system: BT-549 breast
[23] = system: OVCAR-3 ovarian
[24] = system: U251 CNS
[25] = system: SR leukemia
[26] = system: A549 NSCLC
[27] = system: NCI-H23 lung
[28] = system: HCC-2998 colon
[29] = system: HT29 colon
[30] = system: 786-0 renal
[31] = system: SN12C renal
[32] = system: HOP-62 NSCLC
[33] = system: MALME-3M melanoma
[34] = system: UACC-257 melanoma
[35] = system: A498 renal
[36] = system: NCI-H522 lung
[37] = system: HS 578T breast
[38] = system: MDA-MB-435
[39] = system: HCT-116 colon
[40] = system: M14 melanoma
[41] = system: CCRF-CEM leukemia
[42] = system: CAKI-1 renal
[43] = system: SK-MEL-5 melanoma
[44] = system: SK-MEL-28 melanoma
[45] = system: EKVX NSCLC
[46] = system: SK-OV-3 ovarian
[47] = system: IGROV1 ovarian
[48] = system: HCT-15 colon
[49] = system: SNB-75 CNS
[50] = system: SF-539 CNS
[51] = system: LOX IMVI melanoma
[52] = system: TK-10 renal
[53] = system: SF-268 CNS
[54] = system: HOP-92 NSCLC
[55] = system: MDA-MB-231 breast
[56] = system: COLO 205 colon
[57] = system: DU-145 prostate
[58] = system: OVCAR-8 ovarian

## Nc1cc2ccccc2c(O)c1O
[1]
  GI50: 1.69 µM
  TGI: 3.54 µM
[2]
  GI50: 5.24 µM
  TGI: 18.9 µM
[3]
  GI50: 1.53 µM
  TGI: 2.88 µM
[4]
  GI50: 1.88 µM
  TGI: 4.32 µM
[5]
  GI50: 2.71 µM
  TGI: 7.69 µM
[6]
  GI50: 14.4 µM
  TGI: 33.1 µM
[7]
  GI50: 2.37 µM
  TGI: 6.21 µM
[8]
  GI50: 2.49 µM
  TGI: 6.27 µM
[9]
  GI50: 3.13 µM
  TGI: 13.5 µM
[10]
  GI50: 1.83 µM
  TGI: 3.25 µM
[11]
  GI50: 2.59 µM
  TGI: 8.11 µM
[12]
  GI50: 2.36 µM
  TGI: 5.84 µM
[13]
  GI50: 13 µM
  TGI: 32.1 µM
[14]
  GI50: 15.6 µM
  TGI: 31.9 µM
[15]
  GI50: 5.65 µM
  TGI: 18.7 µM
[16]
  GI50: 2.08 µM
  TGI: 5.77 µM
[17]
  GI50: 1.73 µM
  TGI: 3.91 µM
[18]
  GI50: 15.7 µM
  TGI: 29.8 µM
[19]
  GI50: 2.53 µM
  TGI: 10.3 µM
[20]
  GI50: 2.08 µM
  TGI: 4.33 µM
[21]
  GI50: 2.72 µM
  TGI: 7.13 µM
[22]
  GI50: 13.3 µM
  TGI: 26.1 µM
[23]
  GI50: 1.74 µM
  TGI: 3.52 µM
[24]
  GI50: 1.91 µM
  TGI: 3.48 µM
[25]
  GI50: 3.16 µM
  TGI: 13.2 µM
[26]
  GI50: 20.5 µM
  TGI: 41.4 µM
[27]
  GI50: 3.5 µM
  TGI: 17.9 µM
[28]
  GI50: 12.8 µM
  TGI: 27.1 µM
[29]
  GI50: 19.6 µM
  TGI: 41.8 µM
[30]
  GI50: 1.85 µM
  TGI: 3.28 µM
[31]
  GI50: 2.13 µM
  TGI: 4.78 µM
[32]
  GI50: 15.7 µM
  TGI: 30.1 µM
[33]
  GI50: 1.87 µM
  TGI: 3.83 µM
[34]
  GI50: 5.31 µM
  TGI: 18.1 µM
[35]
  GI50: 16.1 µM
  TGI: 30.5 µM
[36]
  GI50: 1.97 µM
  TGI: 3.94 µM
[37]
  GI50: 5.7 µM
  TGI: 96.2 µM
[38]
  GI50: 1.83 µM
  TGI: 3.38 µM
[39]
  GI50: 2.07 µM
  TGI: 4.5 µM
[40]
  GI50: 3.35 µM
  TGI: 12.3 µM
[41]
  GI50: 3 µM
  TGI: 7.85 µM
[42]
  GI50: 1.67 µM
  TGI: 3.1 µM
[43]
  GI50: 15.1 µM
  TGI: 29.3 µM
[44]
  GI50: 12.8 µM
  TGI: 27.4 µM
[45]
  GI50: 10.7 µM
  TGI: 22.7 µM
[46]
  GI50: 15.4 µM
  TGI: 29 µM
[47]
  GI50: 3.98 µM
  TGI: 16.3 µM
[48]
  GI50: 1.9 µM
  TGI: 4.08 µM
[49]
  GI50: 1.94 µM
  TGI: 18.4 µM
[50]
  GI50: 1.79 µM
  TGI: 3.32 µM
[51]
  GI50: 1.59 µM
  TGI: 2.94 µM
[52]
  GI50: 17.9 µM
  TGI: 32.2 µM
[53]
  GI50: 1.78 µM
  TGI: 3.59 µM
[54]
  GI50: 1.96 µM
  TGI: 5.75 µM
[55]
  GI50: 1.96 µM
  TGI: 5.22 µM
[56]
  GI50: 15 µM
  TGI: 31.5 µM
[57]
  GI50: 13.4 µM
  TGI: 27.4 µM

## COc1ccc(-c2cn(-c3cccc(C(=O)/C=C/c4cc(OC)c(OC)c(OC)c4)c3)c(=O)[nH]2)cc1
[2]
  GI50: 1.42 µM
  TGI: 2.75 µM
[3]
  GI50: 3.57 µM
  TGI: > 100 µM
[4]
  GI50: 0.444 µM
  TGI: 3.45 µM
[5]
  GI50: 3.84 µM
  TGI: 22.4 µM
[6]
  GI50: 2.63 µM
  TGI: 7.41 µM
[7]
  GI50: 1.7 µM
  TGI: 4.67 µM
[8]
  GI50: 3.48 µM
  TGI: > 100 µM
[9]
  GI50: 2.64 µM
  TGI: 5.51 µM
[10]
  GI50: 1.92 µM
  TGI: 3.75 µM
[11]
  GI50: 1.27 µM
  TGI: > 100 µM
[12]
  GI50: 35.2 µM
  TGI: > 100 µM
[13]
  GI50: 1.56 µM
  TGI: 3.14 µM
[14]
  GI50: 4.38 µM
  TGI: 15.8 µM
[15]
  GI50: 2.06 µM
  TGI: 4.85 µM
[16]
  GI50: 4.28 µM
  TGI: > 100 µM
[17]
  GI50: 6.22 µM
  TGI: 39 µM
[18]
  GI50: 4.95 µM
  TGI: 22 µM
[19]
  GI50: 1.91 µM
  TGI: 6.73 µM
[20]
  GI50: 0.452 µM
  TGI: 1.61 µM
[21]
  GI50: 0.924 µM
  TGI: > 100 µM
[22]
  GI50: 2.59 µM
  TGI: 8.92 µM
[23]
  GI50: 1.78 µM
  TGI: 4.23 µM
[24]
  GI50: 0.888 µM
  TGI: 3.25 µM
[25]
  GI50: 0.85 µM
  TGI: > 100 µM
[26]
  GI50: 11.8 µM
  TGI: > 100 µM
[27]
  GI50: 1.63 µM
  TGI: 4.35 µM
[28]
  GI50: 1.64 µM
  TGI: 3 µM
[29]
  GI50: 1.28 µM
  TGI: 2.58 µM
[30]
  GI50: 1.61 µM
  TGI: 3.25 µM
[31]
  GI50: 3.5 µM
  TGI: 18.5 µM
[32]
  GI50: 5.91 µM
  TGI: 18.1 µM
[33]
  GI50: 1.79 µM
  TGI: 6.24 µM
[34]
  GI50: 3.04 µM
  TGI: 12.1 µM
[35]
  GI50: 4.21 µM
  TGI: 14.5 µM
[36]
  GI50: 1.85 µM
  TGI: 4.39 µM
[37]
  GI50: 3.39 µM
  TGI: 25.6 µM
[38]
  GI50: 1.86 µM
  TGI: 7.49 µM
[39]
  GI50: 0.371 µM
  TGI: 1.38 µM
[40]
  GI50: 1.85 µM
  TGI: 5.21 µM
[41]
  GI50: 1.74 µM
  TGI: > 100 µM
[42]
  GI50: 3.05 µM
  TGI: 13.2 µM
[43]
  GI50: 2.03 µM
  TGI: 5.25 µM
[44]
  GI50: 2.03 µM
  TGI: 4.04 µM
[45]
  GI50: 4.2 µM
  TGI: > 100 µM
[46]
  GI50: 4.6 µM
  TGI: 61.2 µM
[47]
  GI50: 2.58 µM
  TGI: 7.42 µM
[48]
  GI50: 1.38 µM
  TGI: 4.7 µM
[49]
  GI50: 4.59 µM
  TGI: 17 µM
[50]
  GI50: 2 µM
  TGI: 4.09 µM
[51]
  GI50: 0.725 µM
  TGI: 2.3 µM
[52]
  GI50: 3.04 µM
  TGI: 9.97 µM
[58]
  GI50: 2.53 µM
  TGI: 15.3 µM
[53]
  GI50: 3.21 µM
  TGI: 10.6 µM
[54]
  GI50: 14.9 µM
  TGI: 67.2 µM
[55]
  GI50: 5.48 µM
  TGI: 25.4 µM
[56]
  GI50: 1.84 µM
  TGI: 3.89 µM
[57]
  GI50: 2.61 µM
  TGI: 8.76 µM
